The subject of assay [1] is WT mice. Description: Survival after cecal ligation and puncture (CLP). It counts as in vivo. Particulars: 100 mg/kg subcutaneous every 12h (Figure 5F). The method, then: (§1) Nat Protoc 4, 31-36 (2009). Briefly, an approximately 1 cm abdominal midline incision was made, followed by exposure of the cecum. After ligation, the cecum was punctured three times through and through with a 19-gauge needle and a small portion of feces was pressed out. After repositioning of the bowel, the abdomen was closed in layers using surgical sutures and metallic clips, and 1 ml of 0.9% NaCl (37° Celsius) was slowly injected subcutaneously for resuscitation. For induction of lethal endotoxemia, mice received an intraperitoneal (ip) injection of 40 mg/kg LPS. Survival was monitored at least every 6 h for 7 days after which the experiments were terminated. For pharmacologic proof-of-principle experiments involving II17a, mice received 100 µg/kg PCT and/or 2.5 µg/kg antibody treatment ip 30 minutes before and 12h after induction of septic shock through 40 mg/kg LPS ip. Non-specific IgG was used at equal concentrations. Olcegepant (100 mg/kg) was administered intraperitoneally or subcutaneously as indicated. […]
(§2) The number of samples was chosen according to established standards providing sufficient statistical power to enable the detection of biologically relevant differences in animal models. Data were analyzed by two-tailed Student's t-test using Excel software. […]

In assay [2] the test system is WT mice. Description: Serum cytokine levels (ELISA) after sublethal LPS challenge. It counts as in vivo. Particulars: 10 h after 10 mg/kg LPS, single injection of 100 mg/kg ip (Figure 5D). The procedure:
as §1, with “indicated. For in vivo experiments involving expression, histological, and FACS analyses, mice were challenged with a sublethal dose of LPS (10 mg/kg ip).” for “indicated.”
Serum was obtained by cardiac puncture. […] Serum concentrations of PCT, CT and CGRP were measured by ELISA (Kamiya #KT-25866, Bachem #S-1488.0001 BA, S-1167.0001 BA).

Assay [3] has as its system bone marrow-derived macrophages. The experiment in a line: Cytokine mRNA expression (qRT-PCR) in primary macrophages stimulated with LPS and/or PCT. The class given is cell-based, mouse. Particulars: macrophages in vitro, LPS plus PCT, mRNA levels (Figure 5C). The procedure:
RNA was isolated using the RNeasyMini kit (Qiagen). For qRT-PCR expression analysis, 1 µg of RNA was reverse transcribed using SuperScriptIII (Invitrogen) according to the manufacturer's instructions. qRT-PCR analysis was performed using predesigned TaqMan gene expression assays (Applied Biosystems) and Gapdh as internal control.
Primary macrophages were generated from bone marrow cells cultured in DMEM supplemented 10% FCS and 40 ng/ml M-CSF for 7 days. Primary DC were generated from mouse bone marrow cells which were grown in RPMI 1640 medium with 10% FBS supplemented with 100 U/ml GM-CSF and 20 ng/ml IL-4 for 7 days. For γδT cell preparations, spleens were dissected and processed through a 40-µm filter, followed by lysis of erythrocytes. γδT lymphocytes were subsequently purified using magnetic labeled beads (Miltenyi Biotec, #130-092-125). For the generation of primary osteoblasts, bone marrow cells were differentiated for 10 days in the presence of 25 µg/ml ascorbic acid and 5 mM β-glycerophosphate as described previously (Keller, J., et al. Calcitonin controls bone formation by inhibiting the release of sphingosine 1-phosphate from osteoclasts. Nat Commun 5, 5215 (2014)). […]

Assay [4] has as its system WT mice. Description: Survival in lethal endotoxemia (40 mg/kg LPS ip), monitored for 7 days. The class given is in vivo. The procedure: Nat Protoc 4, 31-36 (2009). Briefly, an approximately 1 cm abdominal midline incision was made, followed by exposure of the cecum. After ligation, the cecum was punctured three times through and through with a 19-gauge needle and a small portion of feces was pressed out. After repositioning of the bowel, the abdomen was closed in layers using surgical sutures and metallic clips, and 1 ml of 0.9% NaCl (37° Celsius) was slowly injected subcutaneously for resuscitation. For induction of lethal endotoxemia, mice received an intraperitoneal (ip) injection of 40 mg/kg LPS. Survival was monitored at least every 6 h for 7 days after which the experiments were terminated. For pharmacologic proof-of-principle experiments involving II17a, mice received 100 µg/kg PCT and/or 2.5 µg/kg antibody treatment ip 30 minutes before and 12h after induction of septic shock through 40 mg/kg LPS ip. Non-specific IgG was used at equal concentrations. Olcegepant (100 mg/kg) was administered intraperitoneally or subcutaneously as indicated. For in vivo experiments involving expression, histological, and FACS analyses, mice were challenged with a sublethal dose of LPS (10 mg/kg ip). The use of in vivo experiments, especially CLP, was kept to a minimum throughout the study (replace, reduce, refine) in accordance to current recommendations for animal welfare in sepsis research (Lilley 2015). Experimental procedures were performed with approval from the animal care committees of the University Medical Center Hamburg-Eppendorf and the Behörde für Umwelt und Gesundheit der Hansestadt Hamburg.
The number of samples was chosen according to established standards providing sufficient statistical power to enable the detection of biologically relevant differences in animal models. Data were analyzed by two-tailed Student's t-test using Excel software. In the case of multiple comparisons, Bonferroni correction was used. Survival analyses were performed using the log-rank-test. If not indicated otherwise, all data are reported as mean ± SD. p<0.05 was considered statistically significant.

The next assay deals with Calca-deficient mice. The experiment in a line: Survival in lethal endotoxemia (40 mg/kg LPS ip). It counts as in vivo. The conditions noted are these: 100 mg/kg ip co-administered with (immediately before) 40 mg/kg LPS ip (Figure 5G). The procedure:
as §1, §2

A further assay relates to αCgrp-deficient mice. Description: Survival in lethal endotoxemia (40 mg/kg LPS ip). It counts as in vivo. Particulars: 100 mg/kg ip immediately before 40 mg/kg LPS (Figure 5H). The method, then: as §1, §2

Entries after “also recorded” stand apart in the source; their conditions may differ.

Regarding `NCCCC[C@H](NC(=O)[C@@H](Cc1cc(Br)c(O)c(Br)c1)NC(=O)N1CCC(N2Cc3ccccc3NC2=O)CC1)C(=O)N1CCN(c2ccncc2)CC1` [olcegepant, N-((1R)-2-(((1S)-5-amino-1-((4-(pyridin-4-yl)piperazin-1-yl)carbonyl)pentyl)amino)-1-(3,5-dibromo-4-hydroxybenzyl)-2-oxoethyl)-4-(2-oxo-1,4-dihydroquinazolin-3(2H)-yl)piperidine-1-carboxamide], the mortality entry in the assay with WT mice [1] was “significantly reduced”; in the assay on WT mice [4] (100 mg/kg ip immediately before 40 mg/kg LPS ip (Figure 5E)) it was “significant reduction of mortality”; in the assay on WT mice [4] (single 100 mg/kg ip 4h after 40 mg/kg LPS ip, into the inflamed peritoneal cavity (Figure 12)), “increased mortality; also recorded: decreased survival”. For the same molecule, in the assay on WT mice [2], the II1b levels entry was “significant reduction”. Further, the II17a levels result in the assay on WT mice [2] is given as “significant reduction”. Moreover, the “LPS-dependent stimulatory effect of PCT on II1b expression” value in assay [3] was “inhibited”. Also, the “LPS-dependent stimulatory effect of PCT on II6 expression” value in assay [3] is “inhibited”. In addition, the survival entry is listed as “significantly prolonged survival” in the assay with WT mice [4] (intermittent subcutaneous treatment 100 mg/kg every 12 hours, starting 4h after ip LPS challenge (Figure 5I)); “trend towards improved survival” with WT mice [4] (single subcutaneous injection 100 mg/kg 4h after ip LPS challenge (Figure 5I)); “favorable effect” with WT mice [4] (subcutaneous 4h before LPS (40 mg/kg ip), prophylactic (Figure 5J)); “did not further improve the survival” with Calca-deficient mice. Moreover, the mortality rates result in the assay with αCgrp-deficient mice is on record as “significantly improved mortality rates”.

These data come from patent EP3366286A1, “COMPOUNDS FOR TREATING SEPSIS” (Keller, Johannes, priority 2017, dated 2018).
